Laboratory results from ChEMBL document CHEMBL5252617, “Design, synthesis and biological evaluation of novel N-(methyl-d3) pyridazine-3-carboxamide derivatives as TYK2 inhibitors” (Bioorg Med Chem Lett, 2023).

What was measured:
[1] = biological target: Tyrosine-protein kinase JAK2 (Homo sapiens, UniProt O60674); experiment: Inhibition of JAK2 dependent GM-CSF stimulated STAT3 phosphorylation in human TF-1 cells; format: cell-based
[2] = MRT (0 to t) in mouse at 1 mg/kg, iv; format: ADME, organism-based; settings: in vivo
CYP2C19 = CYP2C19 (Homo sapiens, UniProt P33261); experiment: Inhibition of CYP2C19 (unknown origin) at 1 uM relative to control; format: ADME
Chain of CYP2C19 (P33261 whole entry): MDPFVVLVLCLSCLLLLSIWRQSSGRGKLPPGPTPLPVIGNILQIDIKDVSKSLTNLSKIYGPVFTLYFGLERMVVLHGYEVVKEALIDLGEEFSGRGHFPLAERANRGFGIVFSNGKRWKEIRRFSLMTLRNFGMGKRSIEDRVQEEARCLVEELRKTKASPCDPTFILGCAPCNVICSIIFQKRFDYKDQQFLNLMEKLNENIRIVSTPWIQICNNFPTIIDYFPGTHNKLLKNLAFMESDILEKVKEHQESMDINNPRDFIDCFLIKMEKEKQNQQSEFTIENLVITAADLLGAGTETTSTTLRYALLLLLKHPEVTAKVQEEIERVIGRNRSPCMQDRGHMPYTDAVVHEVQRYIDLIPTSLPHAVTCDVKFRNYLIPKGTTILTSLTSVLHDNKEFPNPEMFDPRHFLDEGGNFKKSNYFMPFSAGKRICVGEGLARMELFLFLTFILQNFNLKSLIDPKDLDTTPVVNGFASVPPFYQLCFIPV

[3] = Half life in mouse at 30 mg/kg, IG; format: ADME, organism-based; settings: in vivo, po
[4] = Half life in mouse at 1 mg/kg, iv; format: ADME, organism-based; settings: in vivo
[5] = Cmax in mouse at 30 mg/kg, IG; format: ADME, organism-based; design: dose 30 mg/kg, route ig; settings: in vivo, po
[6] = biological target: Non-receptor tyrosine-protein kinase TYK2 (Homo sapiens, UniProt P29597); experiment: Inhibition of TYK2 dependent IFNalpha-stimulated STAT3 phosphorylation in human Jurkat cells; format: cell-based
Chain of Non-receptor tyrosine-protein kinase TYK2 (P29597 whole entry): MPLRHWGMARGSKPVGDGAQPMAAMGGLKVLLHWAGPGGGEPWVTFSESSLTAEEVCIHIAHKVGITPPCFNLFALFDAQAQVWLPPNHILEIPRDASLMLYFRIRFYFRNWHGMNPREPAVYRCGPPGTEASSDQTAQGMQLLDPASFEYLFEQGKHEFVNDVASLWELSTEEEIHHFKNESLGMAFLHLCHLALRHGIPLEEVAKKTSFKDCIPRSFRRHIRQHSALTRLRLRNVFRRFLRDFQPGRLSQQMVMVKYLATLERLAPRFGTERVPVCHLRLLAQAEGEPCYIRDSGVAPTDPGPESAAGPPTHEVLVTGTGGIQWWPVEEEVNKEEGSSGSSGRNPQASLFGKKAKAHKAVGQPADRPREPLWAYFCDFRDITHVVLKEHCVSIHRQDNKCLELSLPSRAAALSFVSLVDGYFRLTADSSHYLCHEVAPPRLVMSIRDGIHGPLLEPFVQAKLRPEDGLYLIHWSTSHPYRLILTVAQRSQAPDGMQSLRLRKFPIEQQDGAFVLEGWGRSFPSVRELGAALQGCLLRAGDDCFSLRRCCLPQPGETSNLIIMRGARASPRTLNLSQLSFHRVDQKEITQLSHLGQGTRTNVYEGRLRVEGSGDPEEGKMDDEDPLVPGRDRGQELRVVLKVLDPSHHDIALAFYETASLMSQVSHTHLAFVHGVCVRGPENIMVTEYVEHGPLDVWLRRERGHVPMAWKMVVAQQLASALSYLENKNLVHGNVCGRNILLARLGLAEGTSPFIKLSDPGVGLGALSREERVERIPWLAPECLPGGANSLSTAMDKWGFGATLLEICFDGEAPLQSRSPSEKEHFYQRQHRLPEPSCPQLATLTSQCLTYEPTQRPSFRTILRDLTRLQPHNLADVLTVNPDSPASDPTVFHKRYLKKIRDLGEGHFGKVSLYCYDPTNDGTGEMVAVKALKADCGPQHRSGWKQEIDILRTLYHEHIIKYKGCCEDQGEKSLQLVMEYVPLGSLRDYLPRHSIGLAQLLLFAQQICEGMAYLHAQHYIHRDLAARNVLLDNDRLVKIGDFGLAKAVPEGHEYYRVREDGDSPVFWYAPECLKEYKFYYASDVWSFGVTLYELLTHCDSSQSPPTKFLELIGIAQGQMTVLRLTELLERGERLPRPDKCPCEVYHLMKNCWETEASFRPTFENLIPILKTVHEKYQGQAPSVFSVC

CYP2C9 = CYP2C9 (Homo sapiens, UniProt P11712); experiment: Inhibition of CYP2C9 (unknown origin) at 1 uM relative to control; format: ADME
Chain of CYP2C9 (P11712 whole entry): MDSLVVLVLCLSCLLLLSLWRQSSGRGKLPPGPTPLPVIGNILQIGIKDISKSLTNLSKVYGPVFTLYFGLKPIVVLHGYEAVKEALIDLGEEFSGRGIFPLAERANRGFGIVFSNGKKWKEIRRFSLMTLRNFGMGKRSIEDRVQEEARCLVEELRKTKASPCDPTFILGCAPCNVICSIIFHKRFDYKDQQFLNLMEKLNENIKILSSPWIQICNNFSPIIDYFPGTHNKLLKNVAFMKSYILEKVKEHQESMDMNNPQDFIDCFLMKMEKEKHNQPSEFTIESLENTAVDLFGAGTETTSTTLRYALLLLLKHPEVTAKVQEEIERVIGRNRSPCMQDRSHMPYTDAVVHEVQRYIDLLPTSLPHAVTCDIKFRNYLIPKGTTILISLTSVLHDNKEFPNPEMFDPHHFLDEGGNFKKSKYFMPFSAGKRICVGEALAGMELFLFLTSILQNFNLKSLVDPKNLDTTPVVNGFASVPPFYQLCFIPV

[7] = Toxicity in anti-CD40 induced immunodeficient Rag1 KO colitis mouse model assessed as body weight loss at 10 to 30 mg/kg, po bid administered for 6 days; format: organism-based; settings: in vivo, 144 h, dose 10-30 mg/kg, time 6 day
[8] = AUC(0 to infinity) in mouse at 1 mg/kg, iv; format: ADME, organism-based; design: dose 1 mg/kg, route iv; settings: in vivo
[9] = AUC(0 to infinity) in mouse at 30 mg/kg, IG; format: ADME, organism-based; design: dose 30 mg/kg, route ig; settings: in vivo, po
[10] = Volume of distribution in mouse at 1 mg/kg, iv; format: ADME, organism-based; settings: in vivo
CYP2D6 = CYP2D6 (Homo sapiens, UniProt P10635); experiment: Inhibition of CYP2D6 (unknown origin) at 1 uM relative to control; format: ADME
Chain of CYP2D6 (P10635 whole entry): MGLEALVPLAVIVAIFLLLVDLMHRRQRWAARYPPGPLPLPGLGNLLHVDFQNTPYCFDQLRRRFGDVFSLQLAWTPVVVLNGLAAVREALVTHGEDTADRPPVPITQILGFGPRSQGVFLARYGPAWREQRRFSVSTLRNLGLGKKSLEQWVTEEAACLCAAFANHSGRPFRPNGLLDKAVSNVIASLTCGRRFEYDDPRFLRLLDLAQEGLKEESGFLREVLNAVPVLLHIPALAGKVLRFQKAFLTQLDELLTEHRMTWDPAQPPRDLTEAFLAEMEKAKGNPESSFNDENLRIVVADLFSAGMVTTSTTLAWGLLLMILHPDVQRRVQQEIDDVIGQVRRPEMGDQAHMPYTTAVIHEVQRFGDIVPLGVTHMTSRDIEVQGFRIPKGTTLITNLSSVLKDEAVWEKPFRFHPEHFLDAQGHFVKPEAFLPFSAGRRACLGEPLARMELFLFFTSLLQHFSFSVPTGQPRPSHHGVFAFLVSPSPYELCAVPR

[11] = Stability in human liver microsomes assessed as parent compound remaining measured after 60 mins; format: ADME, Microsome; settings: read-out: Stability
CYP2B6 = biological target: T1, CYP2B6 (Homo sapiens, UniProt P20813); experiment: Inhibition of CYP2B6 (unknown origin) at 1 uM relative to control; format: ADME
T1 sequence (P20813 whole entry): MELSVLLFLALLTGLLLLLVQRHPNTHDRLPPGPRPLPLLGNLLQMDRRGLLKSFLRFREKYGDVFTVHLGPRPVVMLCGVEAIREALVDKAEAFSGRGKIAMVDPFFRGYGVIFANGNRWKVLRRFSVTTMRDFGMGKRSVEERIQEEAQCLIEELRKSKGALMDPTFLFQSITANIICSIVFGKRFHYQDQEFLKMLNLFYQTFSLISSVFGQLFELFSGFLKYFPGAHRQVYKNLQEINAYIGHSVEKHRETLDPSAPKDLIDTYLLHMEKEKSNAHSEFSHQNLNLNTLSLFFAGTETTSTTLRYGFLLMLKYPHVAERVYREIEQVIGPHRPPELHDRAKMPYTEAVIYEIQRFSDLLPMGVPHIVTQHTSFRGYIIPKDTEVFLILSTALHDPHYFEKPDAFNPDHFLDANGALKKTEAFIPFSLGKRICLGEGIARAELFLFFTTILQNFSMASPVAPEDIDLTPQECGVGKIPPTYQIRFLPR

CYP1A2 = biological target: T2, CYP1A2 (Homo sapiens, UniProt P05177); experiment: Inhibition of CYP1A2 (unknown origin) at 1 uM relative to control; format: ADME
T2 sequence (P05177 whole entry): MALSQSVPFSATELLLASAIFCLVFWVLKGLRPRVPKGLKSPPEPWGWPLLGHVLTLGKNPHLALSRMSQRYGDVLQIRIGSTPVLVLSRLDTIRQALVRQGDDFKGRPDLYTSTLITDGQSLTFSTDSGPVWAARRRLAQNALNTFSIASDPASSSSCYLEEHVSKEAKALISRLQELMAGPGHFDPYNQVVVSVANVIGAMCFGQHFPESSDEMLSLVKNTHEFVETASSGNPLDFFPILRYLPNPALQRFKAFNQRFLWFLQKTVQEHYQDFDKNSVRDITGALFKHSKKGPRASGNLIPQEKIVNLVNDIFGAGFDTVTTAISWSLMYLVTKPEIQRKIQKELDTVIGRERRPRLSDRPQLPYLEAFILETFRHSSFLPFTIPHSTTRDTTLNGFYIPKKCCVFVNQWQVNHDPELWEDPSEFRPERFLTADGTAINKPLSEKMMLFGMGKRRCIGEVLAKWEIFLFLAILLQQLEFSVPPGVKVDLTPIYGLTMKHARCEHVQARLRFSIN

[12] = Plasma protein binding in anti-CD40 induced immunodeficient Rag1 KO colitis mouse model; format: ADME, cell-free; settings: read-out: PPB (converted)
hERG (KCNH2) = hERG (KCNH2) (Homo sapiens, UniProt Q12809); experiment: Inhibition of human ERG at 10 uM by patch clamp method relative to control; format: toxicity
JAK3/JAK1 = JAK3/JAK1 (Homo sapiens, UniProt P23458+P52333); experiment: Inhibition of JAK1/3 dependent IL-2 stimulated STAT5 phosphorylation in CD3-positive T cells (unknown origin); format: cell-based, CD3-positive T cell
[13] = Tmax in mouse at 30 mg/kg, IG; format: ADME, organism-based; settings: in vivo, po
[14] = Stability in mouse liver microsomes assessed as parent compound remaining measured after 60 mins; format: ADME, Microsome; settings: read-out: Stability
[15] = MRT (0 to t) in mouse at 30 mg/kg, IG; format: ADME, organism-based; settings: in vivo, po
[16] = Bioavailability in mouse at 30 mg/kg, IG; format: ADME, organism-based; settings: in vivo, po
[17] = C0 in mouse at 1 mg/kg, iv; format: ADME, organism-based; settings: in vivo
CYP3A4 = CYP3A4 (Homo sapiens, UniProt P08684); experiment: Inhibition of CYP3A4 (unknown origin) at 1 uM relative to control; format: ADME
Chain of CYP3A4 (P08684 whole entry): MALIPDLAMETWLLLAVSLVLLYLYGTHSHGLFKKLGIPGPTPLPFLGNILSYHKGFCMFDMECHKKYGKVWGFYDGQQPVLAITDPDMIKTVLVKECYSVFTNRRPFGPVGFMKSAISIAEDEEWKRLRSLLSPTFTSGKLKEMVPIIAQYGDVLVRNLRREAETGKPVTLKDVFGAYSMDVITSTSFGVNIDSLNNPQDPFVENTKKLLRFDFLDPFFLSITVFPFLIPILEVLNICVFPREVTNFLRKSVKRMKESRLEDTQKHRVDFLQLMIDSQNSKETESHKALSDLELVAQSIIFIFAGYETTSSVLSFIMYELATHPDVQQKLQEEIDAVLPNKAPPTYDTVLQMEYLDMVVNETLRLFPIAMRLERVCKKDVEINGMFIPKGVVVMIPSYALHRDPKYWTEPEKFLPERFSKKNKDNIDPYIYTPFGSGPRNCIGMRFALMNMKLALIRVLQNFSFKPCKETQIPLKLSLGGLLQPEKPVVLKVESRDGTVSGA

[18] = Clearance in mouse at 1 mg/kg, iv; format: ADME, organism-based; settings: in vivo

Chain of Tyrosine-protein kinase JAK2 (O60674 whole entry): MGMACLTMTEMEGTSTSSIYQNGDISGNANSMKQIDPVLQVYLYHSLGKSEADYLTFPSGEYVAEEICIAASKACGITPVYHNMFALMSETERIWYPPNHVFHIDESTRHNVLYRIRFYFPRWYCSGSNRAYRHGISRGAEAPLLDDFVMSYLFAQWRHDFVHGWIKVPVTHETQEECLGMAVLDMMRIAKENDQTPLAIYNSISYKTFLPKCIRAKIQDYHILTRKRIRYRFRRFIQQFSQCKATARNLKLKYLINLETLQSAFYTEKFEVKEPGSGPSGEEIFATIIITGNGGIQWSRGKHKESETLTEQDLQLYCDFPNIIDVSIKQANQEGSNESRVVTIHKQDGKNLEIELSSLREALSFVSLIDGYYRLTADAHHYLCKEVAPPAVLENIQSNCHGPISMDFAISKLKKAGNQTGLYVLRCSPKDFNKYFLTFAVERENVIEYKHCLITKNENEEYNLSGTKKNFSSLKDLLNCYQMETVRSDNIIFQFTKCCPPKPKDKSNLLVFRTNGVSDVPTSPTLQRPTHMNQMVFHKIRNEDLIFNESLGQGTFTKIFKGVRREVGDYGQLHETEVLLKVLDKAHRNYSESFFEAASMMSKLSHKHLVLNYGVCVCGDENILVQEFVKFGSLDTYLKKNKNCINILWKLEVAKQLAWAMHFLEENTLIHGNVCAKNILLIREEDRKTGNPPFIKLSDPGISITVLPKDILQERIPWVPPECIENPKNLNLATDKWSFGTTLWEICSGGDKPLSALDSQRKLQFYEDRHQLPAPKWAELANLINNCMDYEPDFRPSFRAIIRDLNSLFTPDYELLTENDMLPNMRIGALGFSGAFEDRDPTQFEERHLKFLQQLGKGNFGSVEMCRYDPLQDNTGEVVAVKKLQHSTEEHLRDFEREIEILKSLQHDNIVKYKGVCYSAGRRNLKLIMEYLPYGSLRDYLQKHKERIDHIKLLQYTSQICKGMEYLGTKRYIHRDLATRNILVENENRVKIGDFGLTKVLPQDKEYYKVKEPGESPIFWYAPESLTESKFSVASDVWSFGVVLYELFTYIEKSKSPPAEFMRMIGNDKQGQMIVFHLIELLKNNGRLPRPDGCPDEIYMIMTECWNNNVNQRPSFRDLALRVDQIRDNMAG

IC50 [1]: 2670 nM
MRT last [2]: 2.12 h
inhibition at 1 µM (CYP2C19): -5.42%
half-life [3]: 14.7 h
half-life [4]: 1.52 h
Cmax [5]: 7100 ng/mL
IC50 [6]: 4.8 nM
inhibition at 1 µM (CYP2C9): 7%
AUC [8]: 1694 ng·h/mL
AUC [9]: 171069 ng·h/mL
Vd [10]: 1.29 L/kg
inhibition at 1 µM (CYP2D6): -9%
remaining at 1 h [11]: 106%
inhibition at 1 µM (CYP2B6): 16.9%
inhibition at 1 µM (CYP1A2): 1.18%
fraction unbound [12]: 0.0022
IC50 (JAK3/JAK1): 972 nM
Tmax [13]: 4 h
remaining at 1 h [14]: 93.3%
MRT last [15]: 5.21 h
F [16]: 118.87%
C0 [17]: 702 ng/mL
inhibition at 1 µM (CYP3A4): 5.25%
clearance [18]: 9.83 mL/min/kg
SMILES: [2H]C([2H])([2H])NC(=O)c1nnc(NC(=O)C2CC2)cc1Nc1cccc(C(=O)Nc2ccc(-c3ncn(C4CC4)n3)cc2)c1OC
Activity [7]: Non-Toxic
inhibition at 10 µM (hERG (KCNH2)): 27.8%
